Consider 1 substance from PMC6151468, “Efficacy of Bioactive Cyclic Peptides in Rheumatoid Arthritis: Translation from In Vitro to In Vivo Models” (Molecules : A Journal of Synthetic Chemistry and Natural …, 2017).

The subject of the assay is Collagen Antibody-Induced Arthritis (CAIA) model. Nature of the assay: CAIA model in mice, first study. In kind it is in vivo. Conditions: ten-day period; Humira 10 mg/kg bolus day 1; Lex 5.2 0.32 mg/kg/day i.p.; compared with stimulated untreated animals; Figure 11. The source says: In light of the ability of cyclic peptides to alter the behaviour of macrophages, down-regulating TNF secretion both in vitro and in vivo, the investigation was extended to examine whether such peptides could have an impact on inflammatory diseases such as rheumatoid arthritis, where activation of macrophages, and secretion of TNF, is an important component. The CAIA model was chosen, as its use of lipopolysaccharide as one of the stimulants mirrors the models already employed. The other inducer of inflammation is a cocktail of anti-collagen antibodies, which are agents thought to contribute to disease in the human condition. A scheme of the experimental design is shown in Figure 8, and detailed methodology is provided in the Materials and Methods section of this article. […]
A range of different parameters was measured, as follows: (i) clinical score—a subjective assessment of the number of joints in each paw affected; (ii) paw thickness—measurement of oedema in the paws, reflecting the severity of inflammation; (iii) TNF levels—rise in the bloodstream immediately after LPS administration; (iv) weight change—loss of weight resulting from inflammation. […]

On to adalimumab [Humira], for which the Change in weight entry is “much reduced”.
